Measured values: patent US4370340A, “Benzothiazol-2-one-3-alkanoic acids and esters and aldose reductase inhibiting compositions thereof” (Fujisawa Pharmaceutical Co., Ltd., priority 1979, dated 1983)

The compounds below were run against T1, rabbit lens aldose reductase (Oryctolagus cuniculus, UniProt P15122) (assay: Inhibitory effect on rabbit lens aldose reductase). Conditions: not given.
T1 construct: aldose reductase prepared from rabbit lens; from tissue; host or cells: rabbit lens
Assay type: biochemical
Work on `O=C(O)Cn1c(=O)sc2cc(Cl)ccc21` [compound 12] yielded an IC50 of 410 nM.

Same assay, conditions: aldose reductase prepared from rabbit lens; graphically calculated from inhibitory effect at various concentrations; read-out: 50% Inhibitory concentration (IC50)
With `O=C(O)Cn1c(=O)sc2cc(Oc3ccccc3Cl)ccc21` [compound 4] the IC50 was 270 nM.
`O=C(O)CN1C(=O)C(=O)c2ccc(Cl)cc21` [Test Compound 13, 2,3-dioxo-6-chloro-1-indolineacetic acid] showed an IC50 of 300 nM.
With `O=C(O)Cn1c(=O)sc2cc(Cl)c(Cl)cc21` [Test Compound 15, 2-Oxo-5,6-dichloro-3-benzothiazolineacetic acid] the IC50 was 38 nM.
`O=C(O)Cn1c(=O)sc2cc([N+](=O)[O-])c(Cl)cc21` [compound 16] showed an IC50 of 120 nM.
With `O=C(O)Cn1c(=O)sc2cc(Br)c(Cl)cc21` [Test Compound 8, 2-Oxo-5-chloro-6-bromo-3-benzothiazolineacetic acid] the IC50 was 50 nM.
With `Cc1cc2c(cc1-c1ccccc1)sc(=O)n2CC(=O)O` [compound 14] the IC50 was 33 nM.
In the case of `O=C(O)CN1C(=O)Cc2ccc(Cl)cc21` [compound 9], the IC50 is reported as 270 nM.
In the case of `O=C(O)Cn1c(=O)sc2ccc(Cl)cc21` [Test Compound 10, 2-Oxo-5-chloro-3-benzothiazolineacetic acid], the IC50 is reported as 200 nM.
`O=C(O)Cn1c(=O)oc2cc(-c3ccccc3)c(Cl)cc21` [compound 7] was tested, and the IC50 was 49 nM.
`O=C(O)Cn1c(=O)sc2cc(Oc3ccccc3)c(Cl)cc21` [Test Compound 1, 2-Oxo-5-chloro-6-phenoxy-3-benzothiazolineacetic acid] gave an IC50 of 50 nM.
Work on `O=C(O)Cn1c(=O)sc2c(Cl)c(-c3ccccc3)ccc21` [Test Compound 5, 2-Oxo-6-phenyl-7-chloro-3-benzothiazolineacetic acid] yielded an IC50 of 120 nM.
Compound `O=C(O)Cn1c(=O)oc2ccc(Cl)cc21` [compound 11] has an IC50 of 250 nM.
`Nc1cc2sc(=O)n(CC(=O)O)c2cc1Cl` [compound 17] was tested, and the IC50 was 100 nM.
In the case of `O=C(O)Cn1c(=O)sc2cc(Oc3ccccc3)ccc21` [Test Compound 3, 2-Oxo-6-phenoxy-3-benzothiazolineacetic acid], the IC50 is reported as 690 nM.
In the case of `O=C(O)Cn1c(=O)sc2cc(-c3ccccc3)c(Cl)cc21` [compound 2], the IC50 is reported as 29 nM.
Compound `O=C(O)Cn1c(=O)sc2cc(C3CCCCC3)c(Cl)cc21` [Test Compound 6, 2-Oxo-5-chloro-6-cyclohexyl-3-benzothiazolineacetic acid] has an IC50 of 140 nM.
